US8314098B2, “Pyrazolo-pyrimidine compounds” (Ajinomoto Co., Inc., priority 2008, dated 2012)

Test system: IL-12p70 (the complex of IL-12p35 and p40)
Assay: IL-12p70 production inhibition in macrophages derived from mouse abdomen (IFN-γ/SAC stimulation, ELISA)
Format: cell-based
Details: Macrophage; mouse (Balb/c) abdominal macrophages, 100 ng/mL mouse IFN-γ + 0.05% SAC, overnight; TFA salts tested where prepared as such; read-out: IL-12p70-Inhibitory Activity IC50
Experimental: One milliliter each of a 3% (w/v) thioglycolate solution was intraperitoneally administered to mice (female Balb/c mice), the abdominal cells of each mouse were recovered after 5 or 6 days from the administration of the thioglycolate solution and the adhesive cells were collected and used in the exaluation procedures. To a culture medium containing such adhesive cells, there were added 100 ng/mL of mouse interferon-γ and a 0.05% (v/v) liquid containing killed cells derived from Staphylococcus aureus Cowan I strain (SAC) and a candidate compound and then the mixture was cultivated overnight. After the completion of the cultivation, the survival ratios were determined, there were quantitatively determined the quantities of IL-12p70 (the complex of IL-12p35 and p40) and IL-12p40 or TNF-α according to the ELISA assays while making use of the recovered supernatant of the culture medium and the 50% production-inhibitory concentration (IC50) was calculated for each case (see Table 1 and Tables 1-9 for IL-12p70 and TNF-α and Tables 1 to 10 for IL-12p40).

| SMILES | IC50 |
| --- | --- |
| COc1ccccc1/C=N/Nc1cc(N2CCOCC2)n2nc(-c3ccccc3)cc2n1 [Compound 28, N-(2-methoxy-benzylidene)-N′-(7-morpholin-4-yl-2-phenyl-pyrazolo[1,5-a]pyrimidin-5-yl)-hydrazine] | 160 nM |
| COc1ccc(/C=N/Nc2cc(N3CCOCC3)n3nc(-c4ccccc4)cc3n2)cc1 [Compound 30, N-(4-methoxy-benzylidene)-N′-(7-morpholin-4-yl-2-phenyl-pyrazolo[1,5-a]pyrimidin-5-yl)-hydrazine] | 180 nM |
| COCCN(CCOC)c1ccc(-c2cc3nc(N/N=C/c4cccc(C)c4)cc(N4CCOCC4)n3n2)cc1 [Compound 32, N-{2-[4-bis-(2-methoxy-ethyl-amino)-phenyl]-7-morpholin-4-yl-pyrazolo[1,5-a]pyrimidin-5-yl}-N′-(3-methyl-benzylidene)-hydrazine] | 9.6 nM |
| Cc1cccc(/C=N/Nc2cc(N3CCOCC3)n3nc(-c4ccco4)cc3n2)c1 [Compound 33, N-(2-furan-2-yl-7-morpholin-4-yl-pyrazolo[1,5-a]-pyrimidin-5-yl)-N′-(3-methyl-benzylidene)-hydrazine] | 17 nM |
| Cc1ccc(/C=N/Nc2cc(N3CCOCC3)n3nc(-c4ccccc4)cc3n2)o1 [Compound 54, N-(5-methyl-furan-2-yl-methylidene)-N′-(7-morpholin-4-yl-2-phenyl-pyrazolo[1,5-a]pyrimidin-5-yl)-hydrazine] | 300 nM |
| Cc1ccccc1/C=N/Nc1cc(N2CCOCC2)n2nc(-c3ccccc3)cc2n1 [Compound 57, N-(2-methyl-benzylidene)-N′-(7-morpholin-4-yl-2-phenyl-pyrazolo[1,5-a]pyrimidin-5-yl)-hydrazine] | 420 nM |
| CN(Cc1ccccc1)Nc1cc(N2CCOCC2)n2nc(-c3ccccc3)cc2n1 [Compound 66, N-benzyl-N-methyl-N′-(7-morpholin-4-yl-2-phenyl-pyrazolo[1,5-a]pyrimidin-5-yl)-hydrazine] | 330 nM |
| Cc1nc2sccn2c1/C=N/Nc1cc(N2CCOCC2)n2nc(-c3ccccc3)cc2n1 [Compound 75, N-(6-methy-imidazo[2,1-b]thiazole-5-methylidene)-N′-(7-morpholin-4-yl-2-phenyl-pyrazolo[1,5-a]pyrimidin-5-yl)-hydrazine] | 290 nM |
| C(=N\Nc1cc(N2CCOCC2)n2nc(-c3ccc(N4CCOCC4)nc3)cc2n1)/c1c[nH]c2ccccc12 [Compound 86, N-(1H-indol-3-yl-methylidene)-N′-[7-morpholin-4-yl-2-(6-morpholin-4-yl-pyridin-3-yl)-pyrazolo[1,5-a]pyrimidin-5-yl]-hydrazine] | 1.8 nM |
| COc1ccc(/C=N/Nc2cc(N3CCOCC3)n3nc(-c4ccncc4)cc3n2)cc1C [Compound 92, N-(4-methoxy-3-methyl-benzylidene)-N′-(7-morpholin-4-yl-2-pyridin-4-yl-pyrazolo[1,5-a]pyrimidin-5-yl)-hydrazine] | 44 nM |
| Cc1cccc(/C=N/Nc2cc(N3CCOCC3)n3nc(-c4cc(C)on4)cc3n2)c1 [Compound 98, N-(3-methyl-benzylidene)-N′-[2-(5-methylisoxazol-3-yl)-7-morpholin-4-yl-pyrazolo[1,5-a]pyrimidin-5-yl]-hydrazine] | 26 nM |
| Cc1cc(-c2cc3nc(N/N=C/c4c[nH]c5ccccc45)cc(N4CCOCC4)n3n2)no1 [Compound 99, N-(1H-indol-3-yl-methylidene)-N′-[2-(5-methylisoxazol-3-yl)-7-morpholin-4-yl-pyrazolo[1,5-a]pyrimidin-5-yl]-hydrazine] | 16 nM |
| C(=N\Nc1cc(N2CCOCC2)n2nc(-c3cccnc3)cc2n1)/c1ccc2[nH]ccc2c1 [Compound 103, N-(1H-indol-5-yl-methylidene)-N-(7-morpholin-4-yl-2-pyridin-3-yl-pyrazolo[1,5-a]pyrimidin-5-yl)-hydrazine] | 160 nM |
| Cc1[nH]c2ccc(/C=N/Nc3cc(N4CCOCC4)n4nc(-c5cccnc5)cc4n3)cc2c1C [Compound 105, N-(2,3-dimethyl-1H-indol-5-yl-methylidene)-N-(7-morpholin-4-yl-2-pyridin-3-yl-pyrazolo[1,5-a]pyrimidin-5-yl)-hydrazine] | 89 nM |

Continued by falling IC50, values first:

| IC50 | SMILES |
| --- | --- |
| 440 nM | Cc1[nH]c2ccccc2c1/C=N/Nc1cc(N2CCOCC2)n2nc(-c3ccccc3)cc2n1 [Compound 78, N-(2-methyl-1H-indol-3-yl-methylidene)-N′-(7-morpholin-4-yl-2-phenyl-pyrazolo[1,5-a]pyrimidin-5-yl)-hydrazine] |
| 380 nM | C(=N\Nc1cc(N2CCOCC2)n2nc(N3CCCCC3)cc2n1)/c1c[nH]c2ccccc12 [Compound 101, N-(1H-indol-3-yl-methylidene)-N-(7-morpholin-4-yl-2-piperidin-1-yl-pyrazolo[1,5-a]pyrimidin-5-yl)-hydrazine] |
| 370 nM | C(=N\Nc1cc(N2CCOCC2)n2nc(-c3ccccc3)cc2n1)/c1cccs1 [Compound 61, N-(7-morpholin-4-yl-2-phenyl-pyrazolo[1,5-a]pyrimidin-5-yl)-N′-(thiophen-2-yl-methylidene)-hydrazine] |
| 360 nM | Cc1cccc(/C=N/Nc2cc(N3CCOCC3)n3nc(N4CCCCC4)cc3n2)c1 [Compound 100, N-(3-methyl-benzylidene)-N-(7-morpholin-4-yl-2-piperidin-1-yl-pyrazolo[1,5-a]pyrimidin-5-yl)-hydrazine] |
| 320 nM | Cc1ccsc1/C=N/Nc1cc(N2CCOCC2)n2nc(-c3ccccc3)cc2n1 [Compound 62, N-(3-methyl-thiophen-2-yl-methylidene)-N′-(7-morpholin-4-yl-2-phenyl-pyrazolo[1,5-a]pyrimidin-5-yl)-hydrazine] |
| 320 nM | CC(/C=N/Nc1cc(N2CCOCC2)n2nc(-c3ccccc3)cc2n1)=C\c1ccccc1 [Compound 63, N-(2-methyl-3-phenyl-alkylidene)-N′-(7-morpholin-4-yl-2-phenyl-pyrazolo[1,5-a]pyrimidin-5-yl)-hydrazine] |
| 190 nM | C(=N\Nc1cc(N2CCOCC2)n2nc(-c3ccccc3)cc2n1)/c1cccc2[nH]ccc12 [Compound 72, N-(1H-indol-4-yl-methylidene)-N′-(7-morpholin-4-yl-2-phenyl-pyrazolo[1,5-a]pyrimidin-5-yl)-hydrazine] |
| 150 nM | Clc1ccccc1/C=N/Nc1cc(N2CCOCC2)n2nc(-c3ccccc3)cc2n1 [Compound 25, N-(2-chloro-benzylidene)-N′-(7-morpholin-4-yl-2-phenyl-pyrazolo[1,5-a]pyrimidin-5-yl)-hydrazine] |
| 120 nM | Clc1cccc(/C=N/Nc2cc(N3CCOCC3)n3nc(-c4ccccc4)cc3n2)c1 [Compound 26, N-(3-chloro-benzylidene)-N′-(7-morpholin-4-yl-2-phenyl-pyrazolo[1,5-a]pyrimidin-5-yl)-hydrazine] |
| 110 nM | Cc1cccc(/C=N/Nc2cc(N3CCOCC3)n3nc(OCCOc4ccccc4)cc3n2)c1 [Compound 37, N-(3-methyl-benzylidene)-N′-[7-morpholin-4-yl-2-(2-phenoxy-ethoxy)-pyrazolo[1,5-a]pyrimidin-5-yl]-hydrazine] |
| 6.5 nM | C(=N\Nc1cc(N2CCOCC2)n2nc(-c3cnccn3)cc2n1)/c1c[nH]c2ccccc12 [Compound 93, N-(1H-indol-3-yl-methylidene)-N′-(7-morpholin-4-yl-2-pyrazin-2-yl-pyrazolo[1,5-a]pyrimidin-5-yl)-hydrazine] |
